Data from ChEMBL document CHEMBL3243951, “Relationship between structure and antineoplastic activity of arylsulfonylhydrazones of 2-formylprydine N-oxide” (J Med Chem, 1978).

Tests used:
L1210 [1] = test: Antineoplastic activity against mouse L1210 cells allografted in BDF1 mouse assessed as survival time at 80 mg/kg, qd administered for 6 days (reference value: 8.4 days); format: functional
Mus musculus [2] = test: Toxicity in BDF1 mouse allografted with mouse L1210 cells assessed as change in body weight at 80 mg/kg, qd administered for 6 days measured during compound treatment (reference value: 14.8%); format: organism-based; set-up: dose 80 mg/kg; settings: in vivo, 144 h
Sarcoma-180 [3] = test: Antineoplastic activity against mouse sarcoma 180 cells allografted in CD-1 mouse assessed as 50 day survivors at 60 mg/kg, qd administered for 6 days relative to control; format: functional
Sarcoma-180 [4] = test: Antineoplastic activity against mouse sarcoma 180 cells allografted in CD-1 mouse assessed as increase in survival rate at 60 mg/kg, qd administered for 6 days relative to control; format: functional
Mus musculus [5] = test: Toxicity in CD-1 mouse allografted with mouse sarcoma 180 cells assessed as change in body weight at 60 mg/kg, qd administered for 6 days measured during compound treatment (reference value: 30.2%); format: organism-based; set-up: dose 60 mg/kg; settings: in vivo, 144 h
Sarcoma-180 [6] = test: Antineoplastic activity against mouse sarcoma 180 cells allografted in CD-1 mouse assessed as 50 day survivors at 40 mg/kg, qd administered for 6 days relative to control; format: functional
Sarcoma-180 [7] = test: Antineoplastic activity against mouse sarcoma 180 cells allografted in CD-1 mouse assessed as increase in survival rate at 40 mg/kg, qd administered for 6 days relative to control; format: functional
Mus musculus [8] = test: Toxicity in CD-1 mouse allografted with mouse sarcoma 180 cells assessed as change in body weight at 40 mg/kg, qd administered for 6 days measured during compound treatment (reference value: 30.2%); format: organism-based; set-up: dose 40 mg/kg; settings: in vivo, 144 h
Sarcoma-180 [9] = test: Antineoplastic activity against mouse sarcoma 180 cells allografted in CD-1 mouse assessed as 50 day survivors at 80 mg/kg, qd administered for 6 days relative to control; format: functional
Sarcoma-180 [10] = test: Antineoplastic activity against mouse sarcoma 180 cells allografted in CD-1 mouse assessed as increase in survival rate at 80 mg/kg, qd administered for 6 days relative to control; format: functional
Mus musculus [11] = test: Toxicity in CD-1 mouse allografted with mouse sarcoma 180 cells assessed as change in body weight at 80 mg/kg, qd administered for 6 days measured during compound treatment (reference value: 30.2%); format: organism-based; set-up: dose 80 mg/kg; settings: in vivo, 144 h
Mus musculus [12] = test: Toxicity in BDF1 mouse allografted with mouse L1210 cells assessed as change in body weight at 100 mg/kg, qd administered for 6 days measured during compound treatment (reference value: 14.8%); format: organism-based; set-up: dose 100 mg/kg; settings: in vivo, 144 h
L1210 [13] = test: Antineoplastic activity against mouse L1210 cells allografted in BDF1 mouse assessed as survival time at 100 mg/kg, qd administered for 6 days (reference value: 8.4 days); format: functional
Mus musculus [14] = test: Toxicity in BDF1 mouse allografted with mouse L1210 cells assessed as change in body weight at 60 mg/kg, qd administered for 6 days measured during compound treatment (reference value: 14.8%); format: organism-based; set-up: dose 60 mg/kg; settings: in vivo, 144 h
L1210 [15] = test: Antineoplastic activity against mouse L1210 cells allografted in BDF1 mouse assessed as survival time at 60 mg/kg, qd administered for 6 days (reference value: 8.4 days); format: functional
Sarcoma-180 [16] = test: Antineoplastic activity against mouse sarcoma 180 cells allografted in CD-1 mouse assessed as 50 day survivors at 20 mg/kg, qd administered for 6 days relative to control; format: functional
Sarcoma-180 [17] = test: Antineoplastic activity against mouse sarcoma 180 cells allografted in CD-1 mouse assessed as increase in survival rate at 20 mg/kg, qd administered for 6 days relative to control; format: functional
Mus musculus [18] = test: Toxicity in CD-1 mouse allografted with mouse sarcoma 180 cells assessed as change in body weight at 20 mg/kg, qd administered for 6 days measured during compound treatment (reference value: 30.2%); format: organism-based; set-up: dose 20 mg/kg; settings: in vivo, 144 h

With `Cc1ccc(S(=O)(=O)N/N=C/c2cccc[n+]2[O-])cc1` the Survival (L1210 [1]) was 14.3 days, the Activity (Mus musculus [2]) was -7.4% and the survival at 60 mg/kg (Sarcoma-180 [3]) was 0%. It also gave a T/C (Sarcoma-180 [4]) of 307% and an Activity (Mus musculus [5]) of -8%.
`O=S(=O)(N/N=C/c1cccc[n+]1[O-])c1ccccc1` was tested, and the Survival (L1210 [1]) was 10.6 days, the Activity (Mus musculus [2]) was -8% and the survival at 40 mg/kg (Sarcoma-180 [6]) was 20%. For the same compound, the T/C (Sarcoma-180 [7]) was 339% and the Activity (Mus musculus [8]) was -5.2%.
Work on `COc1ccc(S(=O)(=O)N/N=C/c2cccc[n+]2[O-])cc1` yielded a Survival (L1210 [1]) of 19.7 days, a survival at 80 mg/kg (Sarcoma-180 [9]) of 40% and an Activity (Mus musculus [2]) of -4.9%. The T/C (Sarcoma-180 [10]) was 356% and the Activity (Mus musculus [11]) was -11.6%.
In the case of `Cc1ccccc1S(=O)(=O)N/N=C/c1cccc[n+]1[O-]`, the survival at 60 mg/kg (Sarcoma-180 [3]) is reported as 0%, the Activity (Mus musculus [12]) is reported as -11.1% and the Survival (L1210 [13]) is reported as 19.9 days. The T/C (Sarcoma-180 [4]) was 285% and the Activity (Mus musculus [5]) was -1.9%.
Work on `O=[N+]([O-])c1cccc(S(=O)(=O)N/N=C/c2cccc[n+]2[O-])c1` yielded a Survival (L1210 [1]) of 12.4 days, an Activity (Mus musculus [2]) of -5.4% and a survival at 60 mg/kg (Sarcoma-180 [3]) of 60%. The T/C (Sarcoma-180 [4]) was 390% and the Activity (Mus musculus [5]) was -7.5%.
`O=[N+]([O-])c1ccc(S(=O)(=O)N/N=C/c2cccc[n+]2[O-])cc1` was tested, and the survival at 80 mg/kg (Sarcoma-180 [9]) was 10%, the T/C (Sarcoma-180 [10]) was 345% and the Activity (Mus musculus [11]) was -7.1%.
Compound `Nc1cccc(S(=O)(=O)N/N=C/c2cccc[n+]2[O-])c1` has a survival at 80 mg/kg (Sarcoma-180 [9]) of 0%, a T/C (Sarcoma-180 [10]) of 364% and an Activity (Mus musculus [11]) of -10.3%.
With `Nc1ccc(S(=O)(=O)N/N=C/c2cccc[n+]2[O-])cc1` the survival at 60 mg/kg (Sarcoma-180 [3]) was 0%, the T/C (Sarcoma-180 [4]) was 276% and the Activity (Mus musculus [5]) was 2.4%.
With `O=S(=O)(N/N=C/c1cccc[n+]1[O-])c1ccc(Cl)cc1` the survival at 40 mg/kg (Sarcoma-180 [6]) was 0%, the T/C (Sarcoma-180 [7]) was 260% and the Activity (Mus musculus [8]) was -0.6%.
In the case of `O=S(=O)(N/N=C/c1cccc[n+]1[O-])c1ccc(Br)cc1`, the survival at 40 mg/kg (Sarcoma-180 [6]) is reported as 0%, the T/C (Sarcoma-180 [7]) is reported as 240% and the Activity (Mus musculus [8]) is reported as -3.5%.
With `O=S(=O)(N/N=C/c1cccc[n+]1[O-])c1ccc(F)cc1` the survival at 60 mg/kg (Sarcoma-180 [3]) was 20%, the Activity (Mus musculus [14]) was 1.6% and the T/C (Sarcoma-180 [4]) was 337%. The Survival (L1210 [15]) was 11.8 days and the Activity (Mus musculus [5]) was -5.7%.
Compound `O=S(=O)(N/N=C/c1cc(Cl)cc[n+]1[O-])c1ccccc1` has a survival at 20 mg/kg (Sarcoma-180 [16]) of 0%, a T/C (Sarcoma-180 [17]) of 156% and an Activity (Mus musculus [18]) of 10.8%.
In the case of `O=[N+]([O-])c1cc[n+]([O-])c(/C=N/NS(=O)(=O)c2ccccc2)c1`, the survival at 60 mg/kg (Sarcoma-180 [3]) is reported as 0%, the T/C (Sarcoma-180 [4]) is reported as 293% and the Activity (Mus musculus [5]) is reported as -5.4%.
For `O=S(=O)(N/N=C/c1cc(N2CCOCC2)cc[n+]1[O-])c1ccccc1`, the survival at 20 mg/kg (Sarcoma-180 [16]) was 0%, the T/C (Sarcoma-180 [17]) was 242% and the Activity (Mus musculus [18]) was 1.4%.
For `C/C(=N\NS(=O)(=O)c1ccccc1)c1cccc[n+]1[O-]`, the survival at 60 mg/kg (Sarcoma-180 [3]) was 0%, the T/C (Sarcoma-180 [4]) was 130% and the Activity (Mus musculus [5]) was 23.5%.
Work on `O=C(NNS(=O)(=O)c1ccccc1)c1cccc[n+]1[O-]` yielded a survival at 40 mg/kg (Sarcoma-180 [6]) of 0%, a T/C (Sarcoma-180 [7]) of 107% and an Activity (Mus musculus [8]) of 20.7%.
Compound `O=S(=O)(N/N=C/c1cccc[n+]1[O-])c1cccnc1` has a survival at 60 mg/kg (Sarcoma-180 [3]) of 0%, a T/C (Sarcoma-180 [4]) of 276% and an Activity (Mus musculus [5]) of 0%.
Work on `O=S(=O)(N/N=C/c1cccc[n+]1[O-])c1cccc2ccccc12` yielded a survival at 60 mg/kg (Sarcoma-180 [3]) of 0%, a T/C (Sarcoma-180 [4]) of 261% and an Activity (Mus musculus [5]) of -3.4%.
Work on `O=S(=O)(N/N=C/c1cccc[n+]1[O-])c1ccc2ccccc2c1` yielded a survival at 60 mg/kg (Sarcoma-180 [3]) of 0%, a T/C (Sarcoma-180 [4]) of 308% and an Activity (Mus musculus [5]) of -1.2%.
Work on `O=S(=O)(N/N=C/c1cccc[n+]1[O-])c1ccc2c(c1)Cc1ccccc1-2` yielded a survival at 40 mg/kg (Sarcoma-180 [6]) of 0%, a T/C (Sarcoma-180 [7]) of 276% and an Activity (Mus musculus [8]) of -4.7%.
